US10077261B2, “Imidazolin-5-one derivative useful as FASN inhibitors for the treatment of cancer” (Janssen Pharmaceutica NV, priority 2012, dated 2018)
pIC50: −log10 of the molar value.

Columns and labels:
[1] = target: Fatty Acid Synthase Keto-reductase Domain (FASN KR) (Homo sapiens, UniProt P49327); assay: Fatty Acid Synthase keto-reductase domain (FASN KR) inhibition, NADPH oxidation at 340 nm
Procedure: After 20 minutes incubation at room temperature the plate was measured again (T2).
The decrease in absorbance was calculated as (Absorbance before incubation T1)−(Absorbance following incubation T2).
A plot of Controlmin versus test compound concentration was fitted to a 4-parameter logistic curve using a non-linear least squares regression method.

[2] = system: LNCaP-Vancouver prostate cells; assay: In vitro LNCaP Vancouver prostate cell proliferation assay in lipid reduced medium; format: cell-based; details: read-out: pIC50 LNCaP_Vancouver prostate cell (converted)
[3] = system: A2780 ovarian cells; assay: A2780 ovarian cell proliferation assay in lipid reduced medium, with palmitate (MTT); format: cell-based; details: Homo sapiens, A2780, 96 h; read-out: pIC50 A2780 Ovarian Cell, With Palmitate (converted)
How it was run: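 In this palmitate-supplemented format, compound dilutions (30 μM down to 0.01 μM) are added to cells in lipid-reduced serum with 25 μM palmitate, 0.2% fatty-acid-free BSA and 0.25% ethanol. After four days (96 h) MTT absorbance at 544 nm is recorded and fitted by minimum sum of squares.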

[4] = system: PC-3M-Luc-C6 prostate cells; assay: In vitro PC-3M-Luc-C6 prostate cell proliferation assay in lipid reduced medium; format: cell-based; details: 96 h, read-out: pIC50 PC-3M-Luc-C6 prostate cell (converted)
[5] = system: A2780 ovarian cells; assay: A2780 ovarian cell proliferation assay in lipid reduced medium, without palmitate (MTT); format: cell-based; details: Homo sapiens, A2780, 96 h; read-out: pIC50 A2780 Ovarian Cell, Without Palmitate (converted)
[6] = target: T1, hFASN enzyme (full length) (Homo sapiens, UniProt P49327); assay: Fatty Acid Synthase (FASN) inhibition scintillation proximity assay; format: biochemical; details: for inhibition at 10 µM: read-out: Human FASN % inhibition @ 10 μM, 10 μM test compound; for IC50: read-out: Human FASN pIC50 (converted)
T1 construct: 10 μL hFASN enzyme (full length, 300 ng, purified in house); made in house
How it was run: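 Read-out relies on hydrophobic ³H-palmitate product, formed from ³H-acetyl-CoA and malonyl-CoA, binding streptavidin imaging beads, measured at 610±20 nm after at least 24 h. Full-length enzyme (300 ng) in phosphate buffer pH 7.5 with DTT; eight compound concentrations, 0.01–30 μM.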

Chain of Fatty Acid Synthase Keto-reductase Domain (FASN KR) (P49327 whole entry, the tested form may be a part): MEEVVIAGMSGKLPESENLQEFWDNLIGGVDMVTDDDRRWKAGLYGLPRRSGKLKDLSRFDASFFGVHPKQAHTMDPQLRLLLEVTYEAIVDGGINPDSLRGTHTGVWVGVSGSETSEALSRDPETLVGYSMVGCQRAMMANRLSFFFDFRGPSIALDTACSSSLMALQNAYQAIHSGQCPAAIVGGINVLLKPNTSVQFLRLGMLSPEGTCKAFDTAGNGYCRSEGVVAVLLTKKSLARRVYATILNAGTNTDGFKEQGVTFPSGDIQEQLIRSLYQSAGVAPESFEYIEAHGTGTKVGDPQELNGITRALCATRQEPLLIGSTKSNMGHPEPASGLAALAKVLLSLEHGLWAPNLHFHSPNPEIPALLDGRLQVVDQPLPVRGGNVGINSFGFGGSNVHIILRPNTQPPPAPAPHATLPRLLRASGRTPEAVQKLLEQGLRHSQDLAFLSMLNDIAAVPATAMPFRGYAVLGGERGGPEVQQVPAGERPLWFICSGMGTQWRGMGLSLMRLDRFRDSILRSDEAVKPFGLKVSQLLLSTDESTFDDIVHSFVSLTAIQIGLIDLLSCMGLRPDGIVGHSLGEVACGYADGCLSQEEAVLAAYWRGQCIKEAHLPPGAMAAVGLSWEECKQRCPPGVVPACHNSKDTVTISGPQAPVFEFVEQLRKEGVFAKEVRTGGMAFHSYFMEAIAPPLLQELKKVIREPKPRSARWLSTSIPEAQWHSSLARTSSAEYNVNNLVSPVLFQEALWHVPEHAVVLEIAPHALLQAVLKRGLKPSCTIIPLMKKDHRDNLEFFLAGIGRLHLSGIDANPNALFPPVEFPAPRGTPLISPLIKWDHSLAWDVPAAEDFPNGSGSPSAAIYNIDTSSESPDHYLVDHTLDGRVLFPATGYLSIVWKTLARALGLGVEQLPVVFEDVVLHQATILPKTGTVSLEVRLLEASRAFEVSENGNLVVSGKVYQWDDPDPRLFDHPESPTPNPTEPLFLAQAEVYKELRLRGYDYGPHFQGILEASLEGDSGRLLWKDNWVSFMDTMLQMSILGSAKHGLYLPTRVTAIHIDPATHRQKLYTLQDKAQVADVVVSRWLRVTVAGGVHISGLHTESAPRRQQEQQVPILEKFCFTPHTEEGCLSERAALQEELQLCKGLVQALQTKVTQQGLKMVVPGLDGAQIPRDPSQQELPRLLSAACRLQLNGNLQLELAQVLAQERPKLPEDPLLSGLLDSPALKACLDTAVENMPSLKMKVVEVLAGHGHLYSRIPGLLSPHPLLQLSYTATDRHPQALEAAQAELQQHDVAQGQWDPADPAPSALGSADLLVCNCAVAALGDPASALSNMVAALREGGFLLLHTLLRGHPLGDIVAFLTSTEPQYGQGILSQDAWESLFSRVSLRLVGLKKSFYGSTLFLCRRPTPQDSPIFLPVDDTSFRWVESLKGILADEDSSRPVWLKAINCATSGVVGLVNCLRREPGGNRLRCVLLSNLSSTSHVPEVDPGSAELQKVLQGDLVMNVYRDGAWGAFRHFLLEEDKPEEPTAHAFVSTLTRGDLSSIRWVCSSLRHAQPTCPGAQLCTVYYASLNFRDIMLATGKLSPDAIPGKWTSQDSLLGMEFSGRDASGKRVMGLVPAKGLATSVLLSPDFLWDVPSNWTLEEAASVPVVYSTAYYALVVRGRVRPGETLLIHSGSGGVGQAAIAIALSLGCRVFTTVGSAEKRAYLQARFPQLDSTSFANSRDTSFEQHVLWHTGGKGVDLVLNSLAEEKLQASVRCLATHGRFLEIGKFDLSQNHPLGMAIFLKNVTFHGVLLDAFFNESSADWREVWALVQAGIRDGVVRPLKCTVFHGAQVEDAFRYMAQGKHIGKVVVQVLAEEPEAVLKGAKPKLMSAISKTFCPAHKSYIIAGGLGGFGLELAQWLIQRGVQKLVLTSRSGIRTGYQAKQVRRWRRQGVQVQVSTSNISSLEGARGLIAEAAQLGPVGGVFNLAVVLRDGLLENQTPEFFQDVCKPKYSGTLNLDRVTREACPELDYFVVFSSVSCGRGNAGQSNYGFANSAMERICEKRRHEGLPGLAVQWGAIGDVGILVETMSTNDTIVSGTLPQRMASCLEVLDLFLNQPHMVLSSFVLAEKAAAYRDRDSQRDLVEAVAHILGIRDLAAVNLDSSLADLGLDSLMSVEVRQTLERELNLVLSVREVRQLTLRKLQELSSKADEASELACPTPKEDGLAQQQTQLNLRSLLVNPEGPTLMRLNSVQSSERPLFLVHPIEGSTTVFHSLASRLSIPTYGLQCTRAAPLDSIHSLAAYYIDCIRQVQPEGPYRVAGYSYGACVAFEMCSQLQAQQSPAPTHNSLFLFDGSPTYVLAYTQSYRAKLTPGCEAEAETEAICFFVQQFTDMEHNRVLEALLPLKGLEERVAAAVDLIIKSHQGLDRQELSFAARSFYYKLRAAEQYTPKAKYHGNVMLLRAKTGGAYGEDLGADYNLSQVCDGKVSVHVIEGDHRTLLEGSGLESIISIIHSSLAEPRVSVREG
T1 sequence (P49327 whole entry): as the sequence (P49327 whole entry, the tested form may be a part) above

In the case of `Cc1nc2cc(-c3ccc(C4=NC5(CC5)C(=O)N4CC4CN(C(=O)C5CC5)C4)c(F)c3)ccc2s1` [compound 356, 6-((1-(cyclopropanecarbonyl)azetidin-3-yl)methyl)-5-(2-fluoro-4-(2-methylbenzo[d]thiazol-5-yl)phenyl)-4,6-diazaspiro[2.4]hept-4-en-7-one], the pIC50 [1] was 6.32, the IC50 [2] was 1480 nM and the IC50 [3] was over 10000 nM. It also gave an IC50 [4] of about 324 nM, an IC50 [5] of about 162 nM and an inhibition at 10 µM [6] of 99%. The IC50 [6] was 102 nM.

In the case of `Cc1cc(-c2cccc3[nH]ncc23)ccc1C1=NC2(CC2)C(=O)N1CC1CN(C(=O)C2CC2)C1` [compound 304, 5-(4-(1H-indazol-4-yl)-2-methylphenyl)-6-((1-(cyclopropanecarbonyl)azetidin-3-yl)methyl)-4,6-diazaspiro[2.4]hept-4-en-7-one], the pIC50 [1] was 6.65, the IC50 [2] was 1260 nM and the IC50 [3] was over 10000 nM. For the same compound, the IC50 [4] was 72.4 nM, the IC50 [5] was 85.1 nM and the inhibition at 10 µM [6] was 99%. The IC50 [6] was 97.7 nM.

For `Cc1cc(C2=NC3(CC3)C(=O)N2CC2CN(C(=O)C3CC3)C2)ccc1-c1ccc2sccc2c1` [compound 392, 5-[4-(1-Benzothiophen-5-yl)-3-methylphenyl]-6-{[1-(cyclopropylcarbonyl)azetidin-3-yl]methyl}-4,6-diazaspiro[2.4]hept-4-en-7-one], the pIC50 [1] was 6.06, the IC50 [2] was about 1700 nM and the IC50 [3] was over 10000 nM. It also gave an IC50 [4] of 1620 nM, an IC50 [5] of 2510 nM and an inhibition at 10 µM [6] of 91%. It also gave an IC50 [6] of 245 nM.

`Cc1[nH]c2ccc(-c3ccc(C4=NC5(CC5)C(=O)N4C[C@@H]4CCN(C(=O)C5CC5)C4)cc3)cc2c1C` [compound 213, (R)-6-((1-(cyclopropanecarbonyl)pyrrolidin-3-yl)methyl)-5-(4-(2,3-dimethyl-1H-indol-5-yl)phenyl)-4,6-diazaspiro[2.4]hept-4-en-7-one] gave a pIC50 [1] of 7.12, an IC50 [2] of 355 nM and an IC50 [3] of over 10000 nM. For the same compound, the IC50 [4] was about 112 nM, the IC50 [5] was 115 nM and the inhibition at 10 µM [6] was 95%. The IC50 [6] was 46.8 nM.

`CC(O)C(=O)N1CC[C@@H](CN2C(=O)C3(CCOC3)N=C2c2ccc(-c3ccc4cccnc4c3)cc2)C1` (stereo partly drawn) [compound 681, 3-{[(3R)-1-(2-Hydroxypropanoyl)pyrrolidin-3-yl]methyl}-2-(4-quinolin-7-ylphenyl)-7-oxa-1,3-diazaspiro[4.4]non-1-en-4-one] gave a pIC50 [1] of 5.86, an IC50 [2] of 4900 nM and an IC50 [3] of over 10000 nM. The IC50 [4] was 1380 nM, the IC50 [5] was 794 nM and the inhibition at 10 µM [6] was 91%. The IC50 [6] was 295 nM.

Work on `N#Cc1ccc2cc(-c3ccc(C4=NC5(CC5)C(=O)N4CC4CN(C(=O)C5(O)CC5)C4)c(F)c3)ccc2c1` [compound 872, 6-(3-fluoro-4-(6-((1-(1-hydroxycyclopropanecarbonyl)azetidin-3-yl)methyl)-7-oxo-4,6-diazaspiro[2.4]hept-4-en-5-yl)phenyl)-2-naphthonitrile] yielded a pIC50 [1] of 7.37, an IC50 [2] of 24 nM and an IC50 [3] of about 7940 nM. For the same compound, the IC50 [4] was 4.79 nM, the IC50 [5] was 2.69 nM and the inhibition at 10 µM [6] was 99%. The IC50 [6] was 23.4 nM.

For `O=C(C1CC1)N1CC(CN2C(=O)C3(CC3)N=C2c2ccc(-c3nc4ccc(F)cc4s3)cc2F)C1` [compound 271, 6-((1-(cyclopropanecarbonyl)azetidin-3-yl)methyl)-5-(2-fluoro-4-(6-fluorobenzo[d]thiazol-2-yl)phenyl)-4,6-diazaspiro[2.4]hept-4-en-7-one], the pIC50 [1] was 6.78, the IC50 [2] was 417 nM and the IC50 [3] was over 10000 nM. It also gave an IC50 [4] of 97.7 nM, an IC50 [5] of about 74.1 nM and an inhibition at 10 µM [6] of 104%. It also gave an IC50 [6] of 56.2 nM.

For `O=C(N1CC(CN2C(=O)C3(CC3)N=C2c2ccc(-c3ccc4cccc(F)c4c3)cc2F)C1)C1(O)CC1` [compound 374, 5-(2-fluoro-4-(8-fluoronaphthalen-2-yl)phenyl)-6-((1-(1-hydroxycyclopropanecarbonyl)azetidin-3-yl)methyl)-4,6-diazaspiro[2.4]hept-4-en-7-one], the pIC50 [1] was 7.45, the IC50 [2] was 87.1 nM and the IC50 [3] was over 10000 nM. For the same compound, the IC50 [4] was 20.4 nM, the IC50 [5] was 10 nM and the inhibition at 10 µM [6] was 99%. It also gave an IC50 [6] of 25.7 nM.

For `COc1ccc2cc(-c3ccc(C4=NC5(CC5)C(=O)N4CC4CN(C(=O)C5CC5)C4)c(F)c3)ccc2c1` [compound 351, 6-((1-(cyclopropanecarbonyl)azetidin-3-yl)methyl)-5-(2-fluoro-4-(6-methoxynaphthalen-2-yl)phenyl)-4,6-diazaspiro[2.4]hept-4-en-7-one], the pIC50 [1] was 7.21, the IC50 [2] was 57.5 nM and the IC50 [3] was 8510 nM. It also gave an IC50 [4] of 13.8 nM, an IC50 [5] of 28.2 nM and an inhibition at 10 µM [6] of 95%. The IC50 [6] was 74.1 nM.

`Cc1cc(-c2ccc3cc[nH]c3c2)ccc1C1=NC2(CC2)C(=O)N1CC1CN(C(=O)C2CC2)C1` [compound 303, 5-(4-(1H-indol-6-yl)-2-methylphenyl)-6-((1-(cyclopropancarbonyl)azetidin-3-yl)methyl)-4,6-diazaspiro[2.4]hept-4-en-7-one] was tested, and the pIC50 [1] was 7.16, the IC50 [2] was about 912 nM and the IC50 [3] was over 6170 nM. For the same compound, the IC50 [4] was 39.8 nM, the IC50 [5] was 28.8 nM and the inhibition at 10 µM [6] was 102%. It also gave an IC50 [6] of 30.9 nM.

Compound `O=C(C1CC1)N1CC(CN2C(=O)C3(CC3)N=C2c2ccc(-c3ccc4nn(CCO)cc4c3)cc2F)C1` [compound 536, 6-{[1-(Cyclopropylcarbonyl)azetidin-3-yl]methyl}-5-{2-fluoro-4-[2-(2-hydroxyethyl)-2H-indazol-5-yl]phenyl}-4,6-diazaspiro[2.4]hept-4-en-7-one] has a pIC50 [1] of 5.45, an IC50 [2] of about 7590 nM and an IC50 [3] of over 10000 nM. It also gave an IC50 [4] of about 3090 nM, an IC50 [5] of 955 nM and an inhibition at 10 µM [6] of 88%. For the same compound, the IC50 [6] was 1230 nM.

For `O=C(N1CCCC1)N1CC(CN2C(=O)C3(CCOC3)N=C2c2ccc(-c3ccc4cccnc4c3)cc2)C1` (centres unmarked) [compound 717, 3-{[1-(Pyrrolidin-1-ylcarbonyl)azetidin-3-yl]methyl}-2-(4-quinolin-7-ylphenyl)-7-oxa-1,3-diazaspiro[4.4]non-1-en-4-one], the pIC50 [1] was 5.70, the IC50 [2] was 5010 nM and the IC50 [3] was over 10000 nM. The IC50 [4] was 1700 nM, the IC50 [5] was 1620 nM and the inhibition at 10 µM [6] was 87%. It also gave an IC50 [6] of 676 nM.

`Cn1cc(-c2ccc(-c3ccc(C4=NC5(CC5)C(=O)N4CC4CN(C(=O)C5(O)CC5)C4)c(F)c3)cc2)cn1` [compound 382, 5-(3-fluoro-4′-(1-methyl-1H-pyrazol-4-yl)-[1,1′-biphenyl]-4-yl)-6-((1-(1-hydroxycyclopropanecarbonyl)azetidin-3-yl)methyl)-4,6-diazaspiro[2.4]hept-4-en-7-one] was tested, and the pIC50 [1] was 7.18, the IC50 [2] was 55 nM and the IC50 [3] was over 10000 nM. For the same compound, the IC50 [4] was 26.9 nM, the IC50 [5] was about 6.76 nM and the inhibition at 10 µM [6] was 99%. The IC50 [6] was 25.1 nM.

Compound `Cn1nc(Cl)c2cc(-c3ccc(C4=NC5(CC5)C(=O)N4CC4CN(C(=O)C5CC5)C4)c(F)c3)ccc21` [compound 607, 5-[4-(3-Chloro-1-methyl-1H-indazol-5-yl)-2-fluorophenyl]-6-{[1-(cyclopropylcarbonyl)azetidin-3-yl]methyl}-4,6-diazaspiro[2.4]hept-4-en-7-one] has a pIC50 [1] of 6.27, an IC50 [2] of 1100 nM and an IC50 [3] of over 10000 nM. For the same compound, the IC50 [4] was 178 nM, the IC50 [5] was 646 nM and the inhibition at 10 µM [6] was 102%. The IC50 [6] was 158 nM.
